Experimental findings from patent publication US20100239500A1, “SUBSTITUTED TRIAZINE COMPOUNDS FOR NERVE REGENERATION” (priority 2007, published 2010) are described below.

In one assay the test system is cAMP levels in CGNs. The assay can be described thus: cAMP levels in CGNs. As to conditions: two hours, PDL or PDL/myelin, forskolin at concentrations indicated in chart. The format is cell-based. As to the method:
CGNs were cultured for two hours on PDL or on PDL/myelin in the absence or presence of the four lead compounds at […] (F) at the concentrations indicated in the chart. Forskolin increased neuronal cAMP levels by 100-250-fold, while the lead compounds produced no significant increases.

The subject of assay [1] is cerebellar granule neurons (CGNs). As to the kind of experiment: Neurite growth of CGNs on CSPG substrates. The format is cell-based. As to conditions: laminin/CSPG substrate. How it is done:
(§1) The triazine compounds were added to cultures of primary cerebellar granule neurons (CGNs) to test their ability to promote neurite growth on an inhibitory substrate (PDL/central nervous system myelin). […] The compounds can promote growth on other inhibitory substrates as well. When a mixture of inhibitory chondroitin sulfate proteoglycans (CSPGs) on PDL was used as a substrate, neurite growth of CGNs was increased by each compound, as shown in FIG. 3. The compounds evidently act by overcoming inhibitory signals.

In the next assay the test system is CGNs. The assay can be described thus: Neurite growth of CGNs on permissive substrates (PDL, laminin). The format is cell-based. The settings on record: CGNs on PDL or laminin (LN). How it is done: CGNs were cultured on PDL or laminin (LN) substrates in the absence or presence of one of the four lead compounds, or on LN in the presence of Gö6976. Neurons grew neurites on PDL, and grew longer neurites on LN.
as §1

For a further assay, the system named is E15 rat spinal neurons. The assay can be described thus: Growth of spinal neurons on CSPG substrates. The format is cell-based. As to conditions: two days. How it is done: E15 rat spinal neurons were cultured on LN, or on LN and CSPGs (LN/CSPG) for two days. They were stained for nuclei (blue) and neuronal beta-tubulin (green).
Assay [2] deals with cerebellar granule neurons (CGNs). The assay can be described thus: High-content screen and dose-response of CGN neurite growth on PDL/myelin. The format is cell-based. As to conditions: library compounds at 5 μM shown. How it is done: FIG. 2 is data from a high-content screen of neurite growth on […] (PDL)/myelin. The data for 312 compounds are summarized for total neurite growth normalized to the PDL control. The first three bars show PDL (blue), PDL/myelin (red), and PDL/myelin/dbcAMP (green). […] Straight lines drawn across data represent growth levels with dbcAMP, PDL, myelin, and 50% of the myelin level. The majority of compounds had little or no effect at the concentrations tested (5 μM is shown). […] These four compounds are subsequently referred to as lead compounds.
CGNs were cultured on PDL (control) or on myelin in the presence of the 4 hit compounds at concentrations (in nM) shown. The Cellomics Kinetic Scan Reader (an automated microscope) was used to evaluate average neurite length per neuron in each condition. Growth on myelin in the absence of compounds was set at 100% (origin of y-axis). The black horizontal line represents growth on the control (PDL) substrate; thus growth at or above this line represents complete reversal of the myelin inhibition. Each compound completely reversed growth inhibition by the myelin.
The triazine compounds were added to cultures of primary cerebellar granule neurons (CGNs) to test their ability to promote neurite growth on an inhibitory substrate (PDL/central nervous system myelin). […] The compounds can promote growth on other inhibitory substrates as well. […]

The test system of another assay is cPKC. As to the kind of experiment: In vitro PKC assay. As to conditions: preincubated directly with the enzyme; lead compounds at concentrations optimally effective on cells. The format is biochemical.

As for `C=C[C@@]1(C)CC(=O)[C@]2(O)[C@@]3(C)[C@@H](O)CCC(C)(C)[C@@H]3[C@H](O)[C@H](OC(C)=O)[C@@]2(C)O1` [Forskolin, forskolin], in the assay with cAMP levels in CGNs, the “increase of neuronal cAMP levels” value is 100-250 fold.

Consider `Cn1c2ccccc2c2c3c(c4c5ccccc5n(CCC#N)c4c21)CNC3=O` [Go6976], for which the “neurite growth on LN/CSPG mixture” value in assay [1] is reported as “largely reversed”. Moreover, the “neurite growth on permissive substrates” value in the assay on CGNs is listed as “significantly increased growth on LN”. The “growth of spinal neurons on LN/CSPG” value in the assay with E15 rat spinal neurons is on record as “somewhat restored”.

As to `CCCC(=O)Nc1ncnc2c1ncn2[C@@H]1O[C@@H]2COP(=O)(O)O[C@H]2[C@H]1OC(=O)CCC` [dbcAMP], the “total neurite growth normalized to the PDL control” value in assay [2] was “inhibition is overcome”.

Consider Calphostin C, for which, in the assay with cPKC, the “effect on cPKC activity” value is listed as “inhibits cPKC”.
